Test results: patent publication US7297693B2, “Nitrogen-containing heterocyclic compounds and their use as Raf inhibitors” (SmithKline Beecham P.L.C., priority 2001, dated 2007)

Key:
human melanoma SKMEL2 = experiment: Methylene blue growth inhibition assay (Assay 2), SKMEL2; format: cell-based; conditions: SK-MEL-2, 72 h, B-Raf wt, [Q61R]N-Ras, Assay 2, 3 days
Description: (§1) Methylene Blue Growth Inhibition Assay (Assay 2)
(§2) Normal human foreskin fibroblasts (HFF), human melanoma (A375P, SKMEL2, SKMEL3) colon carcinoma (Colo 205) were cultured in the following growth media: A375P, Colo 205, Roswell Park Memorial Institute (RPMI) 1640 (Life Technologies 22400-089) containing 10% fetal bovine serum (FBS); HFF, Dulbecco's modified Eagle Medium (DMEM) (Life Technologies 12320-032) containing 10% FBS; SKMEL2 and SKMEL3, Minimum Essential Medium (MEM, Life Technologies 11095-080) containing 1× non-essential amino acids (Life Technologies 11140-050) and 10% FBS. Cells were harvested using 0.25% trypsin/1 mM, EDTA, counted using a haemocytometer, and plated in […] of the appropriate media, at the following densities, in a 96-well tissue culture plate (Falcon 3075): […] and A375P, 5,000 cells/well; all other cell lines, 10,000 cells/well. The next day, compounds were diluted in RPMI containing 100 micrograms/ml gentamicin, at twice the final required concentration, from 10 mM stock solutions in dimethyl sulphoxide (DMSO). One hundred microliters per well of these dilutions were added to the 100 microliters of media currently on the cell plates. RPMI containing 0.6% DMSO was added to control wells. […] Optical density at 620 nm was measured on a microplate reader. Percent inhibition of cell growth was calculated relative to vehicle treated control wells. […]

[1] = test system: human colon carcinoma (Colo 201) cells; experiment: XTT 72 hr growth inhibition (Assay 3), Colo201; format: cell-based; conditions: Colorectal cancer, B-Raf ND, Ras ND, Assay 3, 72 hr
Description: XTT 72 hr Growth Inhibition Protocol for Mammalian Cultured Cells (Assay 3)
Human diploid foreskin fibroblasts (HFF) or human colon carcinoma (Colo 201) cells were grown in Dulbecco's modified Eagle's medium (DMEM) (Invitrogen/Life Technologies) containing 10% fetal bovine serum (FBS) and the antibiotics penicillin (100 Units/ml) and streotomycin (100 micrograms/ml) (Invitrogen/Life Technologies). Growth was at 37° C. in humidified 5% CO2 incubators in 75 cm^2 plastic flasks. Cells were harvested using 0.25% trypsin/1 mM ethylenediaminetetraacetic acid (EDTA), resuspended in growth medium, and counted using a hemocytometer. Flat-bottomed 96-well plates were seeded with 2×10^3 cells/well in a volume of 200 ul from trypsinized exponentially growing cultures. To “blank” wells, growth medium was added with no additions. Cells were incubated overnight to permit attachment.
Next day, medium from wells that contained cells was replaced with 180 microliters of fresh medium. Appropriate dilutions of test compounds were added to the wells from stock soloutions of compound dissolved in dimethyl sulfoxide (DMSO); final DMSO concentration in all wells was 0.2%. […] Absorbance at 450 nm was then determined using a 96-well UV plate reader (Molecular Devices). Under these conditions, absorbance of untreated control cells at 450 nm was at least 1.0 optical density unit/ml. […]

[2] = test system: Normal human foreskin fibroblasts (HFF); experiment: Methylene blue growth inhibition assay (Assay 2), HFF; format: cell-based; conditions: Fibroblast, 72 h, B-Raf wt, Ras wt, Assay 2, 3 days
Description: as §1, §2

human melanoma A375P = experiment: Methylene blue growth inhibition assay (Assay 2), A375P; format: cell-based; conditions: 72 h, B-Raf V599E, Ras wt, Assay 2, 3 days
Description: as §1, §2

[3] = test system: colon carcinoma (Colo 205); experiment: Methylene blue growth inhibition assay (Assay 2), Colo205; format: cell-based; conditions: Homo sapiens, COLO 205, 72 h; Colorectal cancer; B-Raf V599E, Ras wt; Assay 2, 3 days
Description: as §1, §2

human melanoma SKMEL3 = experiment: Methylene blue growth inhibition assay (Assay 2), SKMEL3; format: cell-based; conditions: SK-MEL3, 72 h, B-Raf V599E, Ras wt, Assay 2, 3 days
Description: as §1, §2

B-Raf = B-Raf (Homo sapiens, UniProt P15056); experiment: Fluorescence anisotropy kinase binding assay (Assay 1)
Chain of B-Raf (P15056 whole entry): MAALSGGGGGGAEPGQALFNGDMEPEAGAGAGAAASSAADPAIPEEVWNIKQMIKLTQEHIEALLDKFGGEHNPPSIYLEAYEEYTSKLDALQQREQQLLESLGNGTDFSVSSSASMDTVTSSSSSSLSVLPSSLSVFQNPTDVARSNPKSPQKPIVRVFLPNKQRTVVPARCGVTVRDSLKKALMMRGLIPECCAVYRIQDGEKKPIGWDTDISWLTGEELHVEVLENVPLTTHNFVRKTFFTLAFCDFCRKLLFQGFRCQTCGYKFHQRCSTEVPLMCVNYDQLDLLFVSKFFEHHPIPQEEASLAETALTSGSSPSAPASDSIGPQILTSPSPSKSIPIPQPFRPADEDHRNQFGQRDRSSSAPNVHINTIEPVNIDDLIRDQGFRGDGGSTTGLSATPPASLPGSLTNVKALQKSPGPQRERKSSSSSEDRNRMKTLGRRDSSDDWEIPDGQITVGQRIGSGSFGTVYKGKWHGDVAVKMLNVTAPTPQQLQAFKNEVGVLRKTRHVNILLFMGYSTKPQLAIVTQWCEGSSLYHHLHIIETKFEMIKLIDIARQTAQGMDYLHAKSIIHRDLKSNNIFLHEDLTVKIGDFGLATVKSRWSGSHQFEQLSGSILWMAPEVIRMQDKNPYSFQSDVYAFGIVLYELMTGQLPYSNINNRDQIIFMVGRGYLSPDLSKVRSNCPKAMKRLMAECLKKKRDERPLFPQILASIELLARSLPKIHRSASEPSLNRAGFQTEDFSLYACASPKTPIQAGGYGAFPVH
Source text: Fluorescence Anisotropy Kinase Binding Assay
The concentration of kinase enzyme should preferably be ≧1×Kf. The concentration of fluorescent ligand required will depend on the instrumentation used, and the fluorescent and physicochemical properties. The concentration used must be lower than the concentration of kinase enzyme, and preferably less than half the kinase enzyme concentration. A typical protocol is:
All compounds are serially diluted in DMSO, then by a one step dilution into buffer of comparison, 50 mM HEPES, […] pH7.5, 1 mM CHAPS, 10 mM MgCL2, for the assay.
B-Raf Enzyme concentration: 1 nM
Fluorescent ligand concentration: 0.5 nM
Test compound concentration: 0.5 nM-100 uM
Components incubated in 10 ul final volume in LJL HE 384 type B black microtitre plate until equilibrium reached (Over 3 h, up to 30 h)
Fluorescence anisotropy read in an LJL Acquest fluorescence reader.
• Ki=dissociation constant for inhibitor binding • Kf=dissociation constant for fluorescent ligand binding
The fluorescent ligand is the following compound:
which is derived from 5-[2-(4-aminomethylphenyl)-5-pyridin-4-yl-1H-imidazol-4-yl]-2-chlorophenol and rhodamine green.

In the case of O=C(c1cc(-c2ccc3c(c2)CCC3=NO)c(-c2ccncc2)o1)N1CCC(N2CCCC2)CC1 [Example 20, 5-{2-Pyridin-4-yl-5-[1-(4-pyrrolidin-1-yl-piperidin-1-yl)-methanoyl}-furan-3-yl}-indan-1-one oxime], the IC50 (human melanoma SKMEL2) is reported as 1.9 µM, the IC50 [1] is reported as 0.8 µM and the IC50 [2] is reported as greater than 30 µM. For the same molecule, the IC50 (human melanoma A375P) was 0.31 µM, the IC50 [3] was 0.32 µM and the IC50 (human melanoma SKMEL3) was 0.46 µM. The Kd (B-Raf) was 0.4 nM.
